Tests used:
[1] = molecular target: T1, human calcitonin receptor (CTR) (Homo sapiens, UniProt P30988); test: Calcitonin Receptor (CTR) cAMP Assay; type: cell-based; details: COS7-human CTR Clone #2 stable cell line, cAMP dynamic 2 kit, 30 min; read-out: Calcitonin Receptor cAMP Stimulation Activity: EC50
T1 construct: expressed in transfected cells; host or cells: COS-7 (COS7-human CTR Clone #2)
T1 sequence (P30988 25-474): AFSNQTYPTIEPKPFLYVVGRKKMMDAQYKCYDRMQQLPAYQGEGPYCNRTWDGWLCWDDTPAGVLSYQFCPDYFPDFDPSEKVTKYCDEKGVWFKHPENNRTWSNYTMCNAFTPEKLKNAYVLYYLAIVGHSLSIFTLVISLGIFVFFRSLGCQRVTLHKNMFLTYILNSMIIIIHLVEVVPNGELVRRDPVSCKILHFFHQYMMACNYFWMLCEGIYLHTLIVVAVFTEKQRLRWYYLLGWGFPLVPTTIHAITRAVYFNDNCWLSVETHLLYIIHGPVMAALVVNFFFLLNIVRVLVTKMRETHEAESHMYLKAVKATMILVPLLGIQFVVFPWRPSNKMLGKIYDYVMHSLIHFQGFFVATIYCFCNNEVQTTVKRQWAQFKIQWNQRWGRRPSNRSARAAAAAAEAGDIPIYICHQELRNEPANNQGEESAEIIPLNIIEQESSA
Procedure, shortened: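 cAMP accumulation was measured by HTRF cAMP dynamic 2 read at 665/615 nm, 1 h at room temperature, with results scaled between vehicle and positive control. Before detection, COS7-human CTR stable cells were stimulated 30 min at 37 °C with compound (4-fold dilutions) in IBMX-containing HBSS/HEPES/casein buffer.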

[2] = molecular target: T2, COS-7/AMY3 (human calcitonin receptor (CTR) and RAMP3) (Homo sapiens, UniProt O60896+P30988); test: Amylin Receptor cAMP Assay II; type: cell-based; details: values marked **: Amylin Receptor cAMP Assay II; COS-7/AMY3 cells, cAMP dynamic 2 kit, 30 min; read-out: Amylin Receptor cAMP Stimulation Activity: EC50
T2 construct: expressed in transfected cells; host or cells: COS-7
Procedure, shortened: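 Agonist-induced cAMP was quantified by HTRF ratio at 665/615 nm and expressed as % of the window from vehicle to MAX control. Stimulation lasted 30 min at 37 °C in HBSS/20 mM HEPES/0.5 mM IBMX/0.1% casein, using stable human CTR+RAMP3 (AMY3) COS-7 cells at 2000 per well.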

T2 sequence (O60896 24-148, one chain of several): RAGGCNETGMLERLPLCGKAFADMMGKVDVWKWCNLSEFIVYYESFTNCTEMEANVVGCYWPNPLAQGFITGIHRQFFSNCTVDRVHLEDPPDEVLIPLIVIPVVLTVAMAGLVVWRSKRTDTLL

SMILES | EC50 [1] | EC50 [2]
COc1cc2c(cc1F)[C@H](Nc1nccc3cc(-c4c5c(nc(CCc6ccc(F)cc6)c4-c4n[nH]c(=O)o4)[C@@H]4CCCN4C5=O)sc13)CC2 [Compound 257, 5-((S)-4-(7-(((R)-6-fluoro-5-methoxy-2,3-dihydro-1H-inden-1-yl)amino)thieno[2,3-c]pyridin-2-yl)-2-(4-fluorophenethyl)-5-oxo-7,8,9,9a-tetrahydro-5H-pyrido[2,3-a]pyrrolizin-3-yl)-1,3,4-oxadiazol-2(3H)-one] | 0.696 nM | 10.2 nM
COc1cc(F)cc2c1CC[C@H]2Nc1nccc2cc(-c3c4c(nc(CCc5ccc(F)cc5)c3-c3n[nH]c(=O)o3)[C@@H]3CCCN3C4=O)sc12 [Compound 258, 5-((S)-4-(7-(((R)-6-fluoro-4-methoxy-2,3-dihydro-1H-inden-1-yl)amino)thieno[2,3-c]pyridin-2-yl)-2-(4-fluorophenethyl)-5-oxo-7,8,9,9a-tetrahydro-5H-pyrido[2,3-a]pyrrolizin-3-yl)-1,3,4-oxadiazol-2(3H)-one] | 0.171 nM | 1.91 nM
O=C1c2c(nc(CCc3ccc(F)cc3)c(-c3n[nH]c(=O)o3)c2-c2cc3ccnc(N[C@@H]4CCOc5c(F)cc(F)cc54)c3s2)[C@@H]2CCCN12 [Compound 259, 5-((S)-4-(7-(((R)-6,8-difluorochroman-4-yl)amino)thieno[2,3-c]pyridin-2-yl)-2-(4-fluorophenethyl)-5-oxo-7,8,9,9a-tetrahydro-5H-pyrido[2,3-a]pyrrolizin-3-yl)-1,3,4-oxadiazol-2(3H)-one] | 0.152 nM | 1.52 nM
COc1c(F)ccc2c1C[C@@H](F)[C@H]2Nc1nccc2cc(-c3c4c(nc(CCc5ccc(F)cc5)c3-c3n[nH]c(=O)o3)[C@@H]3CCCN3C4=O)sc12 [Compound 260, 5-((S)-4-(7-(((1S,2R)-2,5-difluoro-4-methoxy-2,3-dihydro-1H-inden-1-yl)amino)thieno[2,3-c]pyridin-2-yl)-2-(4-fluorophenethyl)-5-oxo-7,8,9,9a-tetrahydro-5H-pyrido[2,3-a]pyrrolizin-3-yl)-1,3,4-oxadiazol-2(3H)-one] | 0.0529 nM | 1.24 nM
COc1c(F)ccc2c1C[C@H](F)[C@H]2Nc1nccc2cc(-c3c4c(nc(CCc5ccc(F)cc5)c3-c3n[nH]c(=O)o3)[C@@H]3CCCN3C4=O)sc12 [Compound 261, 5-((S)-4-(7-(((1S,2S)-2,5-difluoro-4-methoxy-2,3-dihydro-1H-inden-1-yl)amino)thieno[2,3-c]pyridin-2-yl)-2-(4-fluorophenethyl)-5-oxo-7,8,9,9a-tetrahydro-5H-pyrido[2,3-a]pyrrolizin-3-yl)-1,3,4-oxadiazol-2(3H)-one] | 0.807 nM | 6.35 nM
COc1c(F)ccc2c1CC[C@H]2Nc1nccc2cc(-c3c4c(nc(CCc5ccc(F)cc5)c3-c3n[nH]c(=O)o3)[C@@H]3COCCN3C4=O)sc12 [Compound 262, (R)-4-(7-(((R)-5-fluoro-4-methoxy-2,3-dihydro-1H-inden-1-yl)amino)thieno[2,3-c]pyridin-2-yl)-2-(4-fluorophenethyl)-3-(5-oxo-4,5-dihydro-1,3,4-oxadiazol-2-yl)-7,8,10,10a-tetrahydro-5H-pyrido[2′,3′:3,4]pyrrolo[2,1-c][1,4]oxazin-5-one] | 0.0963 nM | 2.81 nM
COc1c(F)ccc2c1CC[C@H]2Nc1nc(C)cc2cc(-c3c4c(nc(CCc5ccc(F)cc5)c3-c3n[nH]c(=O)o3)[C@@H]3COCCN3C4=O)sc12 [Compound 263, (R)-4-(7-(((R)-5-fluoro-4-methoxy-2,3-dihydro-1H-inden-1-yl)amino)-5-methylthieno[2,3-c]pyridin-2-yl)-2-(4-fluorophenethyl)-3-(5-oxo-4,5-dihydro-1,3,4-oxadiazol-2-yl)-7,8,10,10a-tetrahydro-5H-pyrido[2′,3′:3,4]pyrrolo[2,1-c][1,4]oxazin-5-one] | 0.0341 nM | 0.629 nM
COc1nccc2c1CC[C@H]2Nc1nccc2cc(-c3c4c(nc(CCc5ccc(F)cc5)c3-c3n[nH]c(=O)o3)C35CC(CN3C4=O)C5)sc12 [Compound 264, (R)-5-(2-(4-fluorophenethyl)-4-(7-((1-methoxy-6,7-dihydro-5H-cyclopenta[c]pyridin-5-yl)amino)thieno[2,3-c]pyridin-2-yl)-5-oxo-8,9-dihydro-5H,7H-8,9a-methanopyrido[2,3-a]pyrrolizin-3-yl)-1,3,4-oxadiazol-2(3H)-one] | 0.247 nM | 7.4 nM
Cc1cc2cc(-c3c4c(nc(CCc5ccc(F)cc5)c3-c3n[nH]c(=O)o3)C35CC(CN3C4=O)C5)sc2c(N[C@@H]2CCc3c(Cl)cncc32)n1 [Compound 265, (R)-5-(4-(7-((4-chloro-6,7-dihydro-5H-cyclopenta[c]pyridin-7-yl)amino)-5-methylthieno[2,3-c]pyridin-2-yl)-2-(4-fluorophenethyl)-5-oxo-8,9-dihydro-5H,7H-8,9a-methanopyrido[2,3-a]pyrrolizin-3-yl)-1,3,4-oxadiazol-2(3H)-one] | 0.174 nM | 7.34 nM
O=C1c2c(nc(CCc3ccc(F)cc3)c(-c3n[nH]c(=O)o3)c2-c2cc3ccnc(N[C@@H]4CCc5cc(Cl)cnc54)c3s2)C23CC(CN12)C3 [Compound 266, (R)-5-(4-(7-((3-chloro-6,7-dihydro-5H-cyclopenta[b]pyridin-7-yl)amino)thieno[2,3-c]pyridin-2-yl)-2-(4-fluorophenethyl)-5-oxo-8,9-dihydro-5H,7H-8,9a-methanopyrido[2,3-a]pyrrolizin-3-yl)-1,3,4-oxadiazol-2(3H)-one] | 2.75 nM | 182 nM
COc1c(F)ccc2c1CC[C@H]2Nc1cccc2nc(-c3c4c(nc(CCc5ccc(F)cc5)c3-c3n[nH]c(=O)o3)C35CC(CN3C4=O)C5)sc12 [Compound 267, (R)-5-(4-(7-((5-fluoro-4-methoxy-2,3-dihydro-1H-inden-1-yl)amino)benzo[d]thiazol-2-yl)-2-(4-fluorophenethyl)-5-oxo-8,9-dihydro-5H,7H-8,9a-methanopyrido[2,3-a]pyrrolizin-3-yl)-1,3,4-oxadiazol-2(3H)-one] | 0.738 nM | 14.6 nM
COc1c(F)ccc2c1CC[C@H]2Nc1ncnc2cc(-c3c4c(nc(CCc5ccc(F)cc5)c3-c3n[nH]c(=O)o3)C35CC(CN3C4=O)C5)sc12 [Compound 268, (R)-5-(4-(4-((5-fluoro-4-methoxy-2,3-dihydro-1H-inden-1-yl)amino)thieno[3,2-d]pyrimidin-6-yl)-2-(4-fluorophenethyl)-5-oxo-8,9-dihydro-5H,7H-8,9a-methanopyrido[2,3-a]pyrrolizin-3-yl)-1,3,4-oxadiazol-2(3H)-one] | 0.077 nM | 1.07 nM
COc1c(F)ccc2c1CC[C@H]2Nc1nccc2sc(-c3c4c(nc(CCc5ccc(F)cc5)c3-c3n[nH]c(=O)o3)C35CC(CN3C4=O)C5)cc12 [Compound 269, (R)-5-(4-(4-((5-fluoro-4-methoxy-2,3-dihydro-1H-inden-1-yl)amino)thieno[3,2-c]pyridin-2-yl)-2-(4-fluorophenethyl)-5-oxo-8,9-dihydro-5H,7H-8,9a-methanopyrido[2,3-a]pyrrolizin-3-yl)-1,3,4-oxadiazol-2(3H)-one] | 0.0975 nM | 1.78 nM
COc1c(F)ccc2c1CC[C@H]2Nc1ncnc2sc(-c3c4c(nc(CCc5ccc(F)cc5)c3-c3n[nH]c(=O)o3)C35CC(CN3C4=O)C5)cc12 [Compound 270, (R)-5-(4-(4-((5-fluoro-4-methoxy-2,3-dihydro-1H-inden-1-yl)amino)thieno[2,3-d]pyrimidin-6-yl)-2-(4-fluorophenethyl)-5-oxo-8,9-dihydro-5H,7H-8,9a-methanopyrido[2,3-a]pyrrolizin-3-yl)-1,3,4-oxadiazol-2(3H)-one] | 0.148 nM | 1.6 nM
COc1c(F)ccc2c1CC[C@H]2Nc1ccnc2cc(-c3c4c(nc(CCc5ccc(F)cc5)c3-c3n[nH]c(=O)o3)C35CC(CN3C4=O)C5)sc12 [Compound 271, (R)-5-(4-(7-((5-fluoro-4-methoxy-2,3-dihydro-1H-inden-1-yl)amino)thieno[3,2-b]pyridin-2-yl)-2-(4-fluorophenethyl)-5-oxo-8,9-dihydro-5H,7H-8,9a-methanopyrido[2,3-a]pyrrolizin-3-yl)-1,3,4-oxadiazol-2(3H)-one] | 0.178 nM | 3.13 nM
O=C1c2c(nc(CCc3ccc(F)cc3)c(-c3n[nH]c(=O)o3)c2-c2cc3ccnc(N[C@@H]4CCc5c(F)cccc54)c3s2)C23CC(CN12)C3 [Compound 272, (R)-5-(4-(7-((4-fluoro-2,3-dihydro-1H-inden-1-yl)amino)thieno[2,3-c]pyridin-2-yl)-2-(4-fluorophenethyl)-5-oxo-8,9-dihydro-5H,7H-8,9a-methanopyrido[2,3-a]pyrrolizin-3-yl)-1,3,4-oxadiazol-2(3H)-one] | 0.0666 nM | 1.45 nM
